Results on one substance are retold here after patent US5244883A, “Nonapeptide bombesin antagonists” (The Administrators of the Tulane Educational Fund, priority 1990, dated 1993).

In assay [1] the test system is serum gastrin. The assay is described as follows: Serum gastrin inhibition in vivo after GRP stimulation. As to conditions: rat, eight minutes after GRP 3 μg/100 g BW alone; control 16.7. How it is done:
Bombesin analogs Peptides (5), (10) and (2) were tested in vivo on serum gastrin inhibition after GRP stimulation.

The test system of assay [2] is 3T3 CELLS. The format is cell-based, Murine. To be noted: GRP 3 ng/ml alone, no antagonist; basal 207000 ± 4200. On the procedure:
(C) Inhibition of ^3 H-Thymidine incorporation by 3T3cells. SCLC cells were used 2 to 4 days after passage. Single cell suspensions were prepared by washing the cells (twice with PBS then pipetting them in PBS containing 0.2 g/liter glucose, 0.2 g/liter EDTA, and 14 mM lignocaine hydrochloride at 37° C. until the suspension appeared to be uniform (2-4 min). The cells were washed three times and resuspended in HITES without FCSB. Cultures were set up at 1.34×10^5 cells plated on day 0, all peptides added at same time in 1 ml. of RPMI-1640 medium plus HITES and 0.125% albumin. 48 hours later, 1 uc. of tritiated thymidine was added to each well and incubation continued for an additional 24 hours. Cells then were washed and deposited on glass filter paper and washed with ice cold 5% trichloro-acetic acid. Filter paper placed in vials containing scintillation fluid and counted for 1 minute. | 348,000 - 207,000 = 141,000 was taken as the stimulation

Where no end group is shown, it is not given here.

“GRP: gastrin releasing peptide, peptide amide containing 27 amino-acid with bombesin-like properties; agonist stimulus (VPLPAGGGTVLTKMYPRGNHWAVGHLM-NH2; UniProt P07492 24-50, looked up)” showed a serum gastrin level in assay [1] of 105 pg/mL. The “DPM ± S.E.” value in assay [2] came to 348000 ± 15300 DPM.
